Reference: patent US20100120843A1, “PHARMACEUTICAL COMPOSITION FOR TREATING ALCOHOL-INDUCED LIVER INJURY COMPRISING (4S,5S)-5-FLUOROMETHYL-5-HYDROXY-4-(AMINO)-DIHYDROFURAN-2-ONE OR PHARMACEUTICALLY ACCEPTABLE SALT THEREOF” (LG Life Sciences Ltd., priority 2008, published 2010)

Assays:
caspase-3 = biological target: T1, caspase-3 (Rattus norvegicus, UniProt P55213); experiment: Fluorometric assay of caspase-3 activity in cellular extraction of liver tissue; assay type: in vivo; conditions: EtOH diet with CF1 10 mg/kg oral daily, 12 weeks, LPS 1 mg/kg i.p. 8 h before sacrifice; FIG. 1
T1 construct: the activities of caspase-3 and caspase-8 were assayed in cellular extraction of liver tissue; from tissue; host or cells: liver of Sprague-Dawley rats dosed orally with CF1
T1 sequence (P55213 29-175 limits assumed): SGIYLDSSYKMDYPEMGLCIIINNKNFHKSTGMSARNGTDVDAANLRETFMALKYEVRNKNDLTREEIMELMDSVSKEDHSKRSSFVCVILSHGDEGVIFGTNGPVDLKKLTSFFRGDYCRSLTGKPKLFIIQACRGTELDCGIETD
T1 sequence (P55213 176-277 limits assumed): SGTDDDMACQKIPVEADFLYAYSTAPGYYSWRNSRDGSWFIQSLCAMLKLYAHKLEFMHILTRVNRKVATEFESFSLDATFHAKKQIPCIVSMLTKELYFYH
Source text: (§1) Male Sprague-Dawley rats (5 weeks of age, 170 g of body weight) were divided into four experimental groups: control diet group, control diet with CF1 group, ethanol (EtOH) diet group and EtOH diet with CF1 group. Control diet group, control diet with CF1 group, EtOH diet group, and EtOH diet with CF1 group were fed, respectively, with Lieber-Decarli control diet, Lieber-Decarli control diet and CF1, Lieber-Decarli liquid diet containing 6% ethanol, and Lieber-Decarli liquid diet containing 6% ethanol and CF1 for 12 weeks. CF1 was dissolved in PEG (polyethylene glycol) 400 and 5% ethanol solution (PEG 400:ethanol=2:1), and administered daily at 10 mg/kg by oral gavage. About 8 hours prior to rats' sacrifice, lipopolysaccharide (LPS) was intraperitoneally injected to increase the liver injury in the amount of 1 mg/kg.
(§2) To investigate the role of caspase in alcohol-induced liver injury, the activities of caspase-3 and caspase-8 were assayed in cellular extraction of liver tissue. The activities of caspase-3 and caspase-8 were assayed by using EnzChek™ Caspase Assay Kit molecular Probes, USA) according to the manufacturer's instructions.

caspase-8 = biological target: T2, caspase-8 (Rattus norvegicus, UniProt Q9JHX4); experiment: Fluorometric assay of caspase-8 activity in cellular extraction of liver tissue; assay type: in vivo; conditions: EtOH diet with CF1 10 mg/kg oral daily, 12 weeks, LPS 1 mg/kg i.p. 8 h before sacrifice; FIG. 2
T2 construct: the activities of caspase-3 and caspase-8 were assayed in cellular extraction of liver tissue; from tissue; host or cells: liver of Sprague-Dawley rats dosed orally with CF1
T2 sequence (Q9JHX4 219-378 limits assumed): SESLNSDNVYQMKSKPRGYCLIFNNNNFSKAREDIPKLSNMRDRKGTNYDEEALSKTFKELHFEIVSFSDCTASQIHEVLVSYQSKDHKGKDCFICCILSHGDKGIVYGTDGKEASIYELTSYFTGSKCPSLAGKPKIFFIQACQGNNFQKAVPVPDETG
T2 sequence (Q9JHX4 389-482 limits assumed): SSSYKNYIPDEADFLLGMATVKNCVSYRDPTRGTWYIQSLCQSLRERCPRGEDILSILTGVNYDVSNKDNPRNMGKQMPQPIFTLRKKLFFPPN
Source text: as §1, §2

apoptosis of liver cell = experiment: TUNEL staining of liver tissue (apoptosis of liver cell); assay type: in vivo, rat
Source text: as §1
To investigate apoptosis of liver cell according to alcohol ingestion, TUNEL staining was processed. TUNEL staining was carried out using in situ Cell Death Detection Kit (Roche Diagnostics, Germany) according to the manufacturer's instructions.
Stained tissue was photographed at 100 times magnification (FIG. 5). TUNEL positive cells per field were calculated.

[1] = Determination of serum liver enzymes (AST, ALT) in association with liver injury; assay type: in vivo, rat; conditions: 12 weeks
Source text: as §1
Liver injury was assessed by a biochemical assay of liver enzyme. After the 12 weeks' experiment, the blood samples were obtained from all rats' heart. Serum aspartate transaminase (AST) and alanine transaminase (ALT) values were analyzed for 100 μl of plasma from each blood sample with Hitachi 7050 automatic analyzer (Hitachi, Japan).

liver = experiment: Histological assessment of liver (H&E and Masson's trichrome); assay type: in vivo, rat
Source text: as §1
The extracted livers were fixed by 10% neutral formalin in PBS (phosphate buffered saline). Then, a paraffin section of 4 μm thickness was prepared, and stained with H&E (Hematoxylin & Eosin) and Masson's trichrome. The stained tissue was photographed at 100 times magnification (FIGS. 4A and 4B).

In the case of `CC(C)[C@@]1(C(=O)N[C@H]2CC(=O)O[C@]2(O)CF)CC(c2nccc3ccccc23)=NO1` [CF1, (4S,5S)-5-fluoromethyl-5-hydroxy-4-({[(5R)-5-isopropyl-3-(isoquinolin-1-yl)-4,5-dihydro-5-isoxazolyl]carbonyl}amino)-dihydrofuran-2-one], the “caspase-3 activity in liver tissue” value (caspase-3) is reported as “decreased to the level of control group”, the “caspase-8 activity in liver tissue” value (caspase-8) is reported as “decreased to the level of control group” and the “TUNEL positive cells per field” value (apoptosis of liver cell; Alcohol diet with CF1 10 mg/kg oral daily, 12 weeks, alcohol diet group 25.14±9.14, control diet group 10.3±1.9) is reported as 6.4±1.1 TUNEL positive cells/field. The TUNEL positive cells (apoptosis of liver cell; Control diet with CF1 group, FIGS. 5 and 6) was “rarely observed”, the “Serum alanine transaminase (ALT)” value ([1]; Alcohol diet with CF1 10 mg/kg oral daily, alcohol diet group 336±163 IU/L) was 120±10 IU/L and the “Serum aspartate transaminase (AST)” value ([1]; Alcohol diet with CF1 10 mg/kg oral daily, alcohol diet group 454±175 IU/L) was 194±22 IU/L. The “Serum AST and ALT values compared with control diet group” value ([1]; Control diet with CF1 10 mg/kg oral daily, FIG. 3) was “did not show significant change”, the “Hepatic fibrosis (Masson's trichrome)” value (liver; Alcohol diet with CF1 compared with control diet groups, no statistical significance, FIG. 4B) was “some progression of hepatic fibrosis” and the “Fatty liver (H&E staining)” value (liver; Alcohol diet with CF1 vs alcohol diet group, FIG. 4A) was “inhibited the increase of fatty liver”.
